Test results from article PMC8779134 (2022).
Each block holds one compound with its values, some of them ahead of it. *1 amine or outer side, *2 acyl side, *3 side chain or, on linkers, in order; H or OH if unused. Where a SMILES comes first, the peptide text is derived from it. Bridges are numbered along the chain shown (N, C = ends). [ ]: non-standard residue; d: D form. ξ: configuration not given here. ξTrp(2-yl) = O=C(C(Cc1c([*:3])[nH]c2ccccc12)N[*:1])[*:2]; X2 = O=C(C(CC(O)(CO)CO)N[*:1])[*:2]; X1 = CC(O)(CO)CC(N[*:1])C(=O)[*:2]; ξAsp(3ξ-OH) = NC(C(=O)O)C(O)C(=O)O; Hyp = O=C(O)[CH]1C[CH](O)CN1

Assays:
[1] = test system: Apt (DNA, aptamer) CATGCTTCCCCAGGGAGATGGAGGTCTTTTTGGTTGTTGGTGGGGGAATCTTTTGGTATTGAGGAACATG; experiment: AuNP colorimetric assay (A620/A520); conditions: Na+ 40 mM (NaCl added after binding), room temperature, 400 nM aptamer
[2] = test system: biotin-labeled Apt (DNA, aptamer) CATGCTTCCCCAGGGAGATGGAGGTCTTTTTGGTTGTTGGTGGGGGAATCTTTTGGTATTGAGGAACATG; experiment: magnetic bead ELISA, competition (A450); conditions: 37 °C, biotinylated complementary strand as competitor
[3] = test system: Apt-11 (DNA, aptamer) CTTCCCCAGGGAGATGGAGGTCTTTTTGGTTGTTGGTGGGGGAAT; experiment: ITC; conditions: ultrapure water, 25 °C; 500 μM aptamer into 41.6 μM α-amanitin; fit unphysical (N, ΔH)
[4] = test system: Apt-10 (DNA, aptamer) CCCCAGGGAGATGGAGGTCTTTTTGGTTGTTGGTGGGGGAATCTTTTGGTATTGAGGAA; experiment: ITC; conditions: ultrapure water, 25 °C; 500 μM aptamer into 41.6 μM α-amanitin; printed ΔG positive
[5] = test system: Apt-2 (DNA, aptamer) CCAGGGAGATGGAGGTCTTTTTGGTTGTTGGTGGGGGAATCTTTTGGTATTGAGGAACATG; experiment: AuNP colorimetric assay (A520); conditions: Na+ 40 mM (NaCl added after binding); room temperature; aptamer 0-1600 nM titrated into 1 μg/mL α-amanitin; apparent; table unit misprinted Nm
[6] = test system: Apt (DNA, aptamer) CATGCTTCCCCAGGGAGATGGAGGTCTTTTTGGTTGTTGGTGGGGGAATCTTTTGGTATTGAGGAACATG; experiment: AuNP colorimetric assay (A520); conditions: Na+ 40 mM (NaCl added after binding); room temperature; aptamer 0-1600 nM titrated into 1 μg/mL α-amanitin; apparent; table unit misprinted Nm
[7] = test system: Apt-11 (DNA, aptamer) CTTCCCCAGGGAGATGGAGGTCTTTTTGGTTGTTGGTGGGGGAAT; experiment: AuNP colorimetric assay (A520); conditions: Na+ 40 mM (NaCl added after binding); room temperature; aptamer 0-1600 nM titrated into 1 μg/mL α-amanitin; apparent; table unit misprinted Nm
[8] = test system: Apt-12 (DNA, aptamer) GGGAGATGGAGGTCTT; experiment: AuNP colorimetric assay (A520); conditions: Na+ 40 mM (NaCl added after binding); room temperature; 1 μg/mL α-amanitin; apparent; text b16 prints 132.1 ± 32.99 nM instead
[9] = test system: Apt-8 (DNA, aptamer) CATGCTTCCCCAGGGAGATGGAGGTCTTTTTGGTTGTTGGTGGGGGAATCTTTTGGTA; experiment: ITC; conditions: ultrapure water, 25 °C; 500 μM aptamer titrated into 41.6 μM α-amanitin
[10] = test system: Apt-2 (DNA, aptamer) CCAGGGAGATGGAGGTCTTTTTGGTTGTTGGTGGGGGAATCTTTTGGTATTGAGGAACATG; experiment: ITC; conditions: ultrapure water, 25 °C; 500 μM aptamer titrated into 41.6 μM α-amanitin
[11] = test system: Apt-8 (DNA, aptamer) CATGCTTCCCCAGGGAGATGGAGGTCTTTTTGGTTGTTGGTGGGGGAATCTTTTGGTA; experiment: AuNP colorimetric assay (A520); conditions: Na+ 40 mM (NaCl added after binding); room temperature; aptamer 0-1600 nM titrated into 1 μg/mL α-amanitin; apparent; table unit misprinted Nm
[12] = test system: Apt (DNA, aptamer) CATGCTTCCCCAGGGAGATGGAGGTCTTTTTGGTTGTTGGTGGGGGAATCTTTTGGTATTGAGGAACATG; experiment: ITC; conditions: ultrapure water, 25 °C; 500 μM aptamer titrated into 41.6 μM α-amanitin
[13] = test system: Apt-10 (DNA, aptamer) CCCCAGGGAGATGGAGGTCTTTTTGGTTGTTGGTGGGGGAATCTTTTGGTATTGAGGAA; experiment: AuNP colorimetric assay (A520); conditions: Na+ 40 mM (NaCl added after binding); room temperature; aptamer 0-1600 nM titrated into 1 μg/mL α-amanitin; apparent; table unit misprinted Nm
[14] = test system: Apt-12 (DNA, aptamer) GGGAGATGGAGGTCTT; experiment: ITC; conditions: ultrapure water, 25 °C; 500 μM aptamer titrated into 41.6 μM α-amanitin
[15] = highest concentration 500 ng/mL

binding ([1]; highest concentration 1 μg/mL): no
Compound: CCCC[C@@H](C)[C@@H](OC(=O)C[C@@H](CC(=O)O)C(=O)O)[C@H](C[C@@H](C)C[C@H](O)CCCC[C@@H](O)C[C@H](O)[C@H](C)N)OC(=O)C[C@@H](CC(=O)O)C(=O)O

binding ([1]; 1 μg/mL β-amanitin): yes
binding ([2]; 500 ng/mL): yes
Compound: CC[C@H](C)[C@@H]1NC(=O)CNC(=O)[C@@H]2Cc3c([nH]c4cc(O)ccc34)[S@](=O)C[C@H](NC(=O)CNC1=O)C(=O)N[C@@H](CC(=O)O)C(=O)N1C[C@H](O)C[C@H]1C(=O)N[C@@H]([C@@H](C)[C@@H](O)CO)C(=O)N2

Kd [3]: 54.6 µM
Kd [4]: 68 µM
Kd [5]: 0.0379 ± 0.006053 µM
Kd [6]: 0.0336 ± 0.003928 µM
Kd [7]: 0.1844 ± 0.03708 µM
Kd [8]: 0.1852 ± 0.06087 µM
Kd [9]: 11.9 µM
Kd [10]: 46.9 µM
Kd [11]: 0.1309 ± 0.0311 µM
Kd [12]: 3.1 µM
Kd [13]: 0.1087 ± 0.01823 µM
Kd [14]: 84.7 µM
binding ([2]; 0.1-6 μg/mL): yes
Compound: CC[C@H](C)[C@@H]1NC(=O)CNC(=O)[C@@H]2Cc3c([nH]c4cc(O)ccc34)[S@](=O)C[C@H](NC(=O)CNC1=O)C(=O)N[C@@H](CC(N)=O)C(=O)N1C[C@H](O)C[C@H]1C(=O)N[C@@H]([C@@H](C)[C@@H](O)CO)C(=O)N2

binding [2, 15]: no
Compound: CC[C@H](C)[C@@H]1NC(=O)CNC(=O)[C@@H]2Cc3c([nH]c4cc(O)ccc34)[S@](=O)C[C@H](NC(=O)CNC1=O)C(=O)N[C@@H](CC(N)=O)C(=O)N1C[C@H](O)C[C@H]1C(=O)N[C@@H]([C@@H](C)[C@H](C)O)C(=O)N2

binding ([1]; highest concentration 1 μg/mL): no
Compound: C[C@@H]1Cc2c(Cl)cc(C(=O)N[C@@H](Cc3ccccc3)C(=O)O)c(O)c2C(=O)O1

binding [2, 15]: no
Compound: CC1NC(=O)C2CC(O)CN2C(=O)C2CSc3[nH]c4ccccc4c3CC(NC1=O)C(=O)NC(CC(C)(O)CO)C(=O)NC(C(C)C)C(=O)NC(C(O)C(=O)O)C(=O)N2 (centres unmarked) (cyclo([ξAsp(3ξ-OH)]C[Hyp]A[ξTrp(2-yl)][X1]V); thioether 2-5; configuration not given here)

binding [2, 15]: no
Compound: CC1NC(=O)C2CC(O)CN2C(=O)C2CSc3[nH]c4ccccc4c3CC(NC1=O)C(=O)NC(CC(O)(CO)CO)C(=O)NC(C(C)C)C(=O)NC(C(O)C(=O)O)C(=O)N2 (centres unmarked) (cyclo([ξAsp(3ξ-OH)]C[Hyp]A[ξTrp(2-yl)][X2]V); thioether 2-5; configuration not given here)
